{"source": "patent US11154529B2", "about": "“Phosphaplatin liquid formulations” (Phosplatin Therapeutics Inc., priority 2016, dated 2021)", "type_in_all_cases": "physicochemical", "key": {"[1]": {"assay": "Ready-to-use formulation stability at 40° C./75% RH, 5 mg/mL (R,R)-pyrodach-2 in 10 mM Sodium Phosphate Buffer, 5.2 mM Sodium Pyrophosphate at pH 7.5, 10 mL vials", "description": "Stability data on the formulation with added pyrophosphate at 40° C./75% RH in Table 12 is even more dramatic. […] [table] [table] • Transfer 1419.6 mg±14.0 mg of dibasic sodium phosphate anhydrous to a 1-L volumetric flask. • Transfer 2298.5 mg±23.0 mg of tetrasodium pyrophosphate decahydrate into the same 1-L volumetric flask. • Fill flask to approximately 75% volume with sterile water for injection, swirl as needed to dissolve all solids. • Volumetrically transfer 8.0 mL of 1N NaOH to flask. • Dilute flask to volume with water and mix well. • Record the pH of final solution. This is the vehicle. • Determine the tare weight of a 500-mL compounding vessel with stir bar. • Transfer 2500.1 mg±25.0 mg of (R,R)-pyrodach-2 to the vessel. • Transfer 450.0 g±0.1 g of the vehicle to the vessel and stir to dissolve solids. • Determine the initial pH of the solution. • Slowly adjust the pH of the solution to 7.5±0.1 by adding additional N NaOH. • Determine the gross solution weight and dilute the solution weight to 500.0 g±0.1 g by adding additional vehicle into the compounding vessel. Density=1.00 g/mL. • Stir the final solution for an additional 5 minutes. • Determine the pH of final solution. • Pass the entire solution through a 0.22 μm PVDF Stericup filter into a sterile collection vessel. • Conduct the following in a laminar flow hood; fill 10-mL sterile tubing vials with 10 mL of solution, stoppered with a sterile Flurotec stopper, and crimp-capped with a flip-off seal. • Place vials in 40° C./75% RH and 25° C./60% RH stability chambers. HPLC method in Example 3 to monitor purity and impurities."}, "[2]": {"assay": "Reversal of PT-112 dimer formation by added pyrophosphate in 5 mg/mL aqueous PT-112 solution at ambient temperature", "description": "Evidence that added pyrophosphate reverses the formation of PT-112 dimer in aqueous formulations of PT-112 was shown in the following experiment. A 5 mg/mL aqueous solution of PT-112 was prepared by dissolving PT-112 in 10 mM potassium phosphate buffer containing added potassium hydroxide such that the final solution pH was ˜6.5. […] The decrease was not accompanied by the formation of the RRT 3.1-3.2 impurity; nor the formation of any new impurities, rather an increase in the concentration of PT-112 was observed."}, "[3]": {"assay": "Precipitation of (R,R)-pyrodach-2 dimer from 5 mg/mL ready-to-use formulation on storage at 2-8° C.", "details": "5 mg/mL formulation per Example 6, initial dimer ~0.6 area %", "description": "• Transfer 4564.6 mg±0.5 mg of potassium phosphate dibasic, trihydrate to a 2-L volumetric flask. • Fill flask to approximately 75% volume with water, swirl as needed to dissolve all solids. • Volumetrically transfer 32.0 mL of 1N KOH to flask. • Dilute flask to volume with water and mix well. • Record pH of final solution. This is the diluent. • Transfer 7653.1 mg±0.5 mg of (R,R)-pyrodach-2 to a compounding vessel. • Transfer 1500 mL of the diluent to the vessel and stir to dissolve solids. • Record pH of final solution. • Pass entire solution through a 0.22 μm sterile filter membrane into a sterile collection vessel. • Calculate (R,R)-pyrodach-2 solution concentration"}}, "data": [{"smiles": "O=P1(O)OP(=O)(O)[O][Pt]2([NH][C@@H]3CCCC[C@H]3[NH]2)[O]1", "note": "(stereo partly drawn) [(R,R)-pyrodach-2, (R,R)-trans-1,2-cyclohexanediamine-(dihydrogenpyrophosphato)platinum(II)]", "values": [{"measurement": "Individual Related Substances PT-112 Dimer", "setting": "[1]; 1 Month", "value": "ND (ND = Not Detected, or <0.05%)"}, {"measurement": "Individual Related Substances RRT 0.28-0.29", "setting": "[1]; 1 Month", "value": 0.10, "unit": "%"}, {"measurement": "Individual Related Substances RRT 0.50-0.51", "setting": "[1]; 1 Month", "value": 0.10, "unit": "%"}, {"measurement": "Individual Related Substances RRT 0.58", "setting": "[1]; 1 Month", "value": 0.41, "unit": "%"}, {"measurement": "Individual Related Substances RRT 0.73-0.74", "setting": "[1]; 1 Month", "value": 0.68, "unit": "%"}, {"measurement": "Individual Related Substances RRT 0.92", "setting": "[1]; 1 Month", "value": "ND (ND = Not Detected, or <0.05%)"}, {"measurement": "Individual Related Substances RRT 1.57", "setting": "[1]; 1 Month", "value": "ND (ND = Not Detected, or <0.05%)"}, {"measurement": "Individual Related Substances RRT 3.66-3.71", "setting": "[1]; 1 Month", "value": "ND (ND = Not Detected, or <0.05%)"}, {"measurement": "Potency (Assay)", "setting": "[1]; 1 Month", "value": 101.6, "unit": "%"}, {"measurement": "Total Related Substances", "setting": "[1]; 1 Month", "value": 1.3, "unit": "%"}, {"measurement": "pH", "setting": "[1]; 1 Month", "value": 7.6}, {"measurement": "Individual Related Substances PT-112 Dimer", "setting": "[1]; 2 Months", "value": "ND (ND = Not Detected, or <0.05%)"}, {"measurement": "Individual Related Substances RRT 0.28-0.29", "setting": "[1]; 2 Months", "value": 0.19, "unit": "%"}, {"measurement": "Individual Related Substances RRT 0.50-0.51", "setting": "[1]; 2 Months", "value": 0.19, "unit": "%"}, {"measurement": "Individual Related Substances RRT 0.58", "setting": "[1]; 2 Months", "value": 0.41, "unit": "%"}, {"measurement": "Individual Related Substances RRT 0.73-0.74", "setting": "[1]; 2 Months", "value": 0.88, "unit": "%"}, {"measurement": "Individual Related Substances RRT 0.92", "setting": "[1]; 2 Months", "value": "ND (ND = Not Detected, or <0.05%)"}, {"measurement": "Individual Related Substances RRT 1.57", "setting": "[1]; 2 Months", "value": "ND (ND = Not Detected, or <0.05%)"}, {"measurement": "Individual Related Substances RRT 3.66-3.71", "setting": "[1]; 2 Months", "value": 0.07, "unit": "%"}, {"measurement": "Potency (Assay)", "setting": "[1]; 2 Months", "value": 103.8, "unit": "%"}, {"measurement": "Total Related Substances", "setting": "[1]; 2 Months", "value": 1.7, "unit": "%"}, {"measurement": "pH", "setting": "[1]; 2 Months", "value": 7.6}, {"measurement": "Individual Related Substances PT-112 Dimer", "setting": "[1]; 3 Months", "value": "ND (ND = Not Detected, or <0.05%)"}, {"measurement": "Individual Related Substances RRT 0.28-0.29", "setting": "[1]; 3 Months", "value": 0.16, "unit": "%"}, {"measurement": "Individual Related Substances RRT 0.50-0.51", "setting": "[1]; 3 Months", "value": 0.16, "unit": "%"}, {"measurement": "Individual Related Substances RRT 0.58", "setting": "[1]; 3 Months", "value": 0.48, "unit": "%"}, {"measurement": "Individual Related Substances RRT 0.73-0.74", "setting": "[1]; 3 Months", "value": 0.86, "unit": "%"}, {"measurement": "Individual Related Substances RRT 0.92", "setting": "[1]; 3 Months", "value": "ND (ND = Not Detected, or <0.05%)"}, {"measurement": "Individual Related Substances RRT 1.57", "setting": "[1]; 3 Months", "value": "ND (ND = Not Detected, or <0.05%)"}, {"measurement": "Individual Related Substances RRT 3.66-3.71", "setting": "[1]; 3 Months", "value": 0.11, "unit": "%"}, {"measurement": "Potency (Assay)", "setting": "[1]; 3 Months", "value": 101.5, "unit": "%"}, {"measurement": "Total Related Substances", "setting": "[1]; 3 Months", "value": 1.8, "unit": "%"}, {"measurement": "pH", "setting": "[1]; 3 Months", "value": 7.5}, {"measurement": "Individual Related Substances PT-112 Dimer", "setting": "[1]; 6 Months", "value": "ND (ND = Not Detected, or <0.05%)"}, {"measurement": "Individual Related Substances RRT 0.28-0.29", "setting": "[1]; 6 Months", "value": 0.17, "unit": "%"}, {"measurement": "Individual Related Substances RRT 0.50-0.51", "setting": "[1]; 6 Months", "value": 0.22, "unit": "%"}, {"measurement": "Individual Related Substances RRT 0.58", "setting": "[1]; 6 Months", "value": 0.47, "unit": "%"}, {"measurement": "Individual Related Substances RRT 0.73-0.74", "setting": "[1]; 6 Months", "value": 0.81, "unit": "%"}, {"measurement": "Individual Related Substances RRT 0.92", "setting": "[1]; 6 Months", "value": "ND (ND = Not Detected, or <0.05%)"}, {"measurement": "Individual Related Substances RRT 1.57", "setting": "[1]; 6 Months", "value": "ND (ND = Not Detected, or <0.05%)"}, {"measurement": "Individual Related Substances RRT 3.66-3.71", "setting": "[1]; 6 Months", "value": 0.18, "unit": "%"}, {"measurement": "Potency (Assay)", "setting": "[1]; 6 Months", "value": 102.8, "unit": "%"}, {"measurement": "Total Related Substances", "setting": "[1]; 6 Months", "value": 1.9, "unit": "%"}, {"measurement": "pH", "setting": "[1]; 6 Months", "value": 7.5}, {"measurement": "Individual Related Substances PT-112 Dimer", "setting": "[1]; Initial", "value": 0.16, "unit": "%"}, {"measurement": "Individual Related Substances RRT 0.28-0.29", "setting": "[1]; Initial", "value": 0.14, "unit": "%"}, {"measurement": "Individual Related Substances RRT 0.50-0.51", "setting": "[1]; Initial", "value": 0.08, "unit": "%"}, {"measurement": "Individual Related Substances RRT 0.58", "setting": "[1]; Initial", "value": 0.34, "unit": "%"}, {"measurement": "Individual Related Substances RRT 0.73-0.74", "setting": "[1]; Initial", "value": 0.83, "unit": "%"}, {"measurement": "Individual Related Substances RRT 0.92", "setting": "[1]; Initial", "value": 0.05, "unit": "%"}, {"measurement": "Individual Related Substances RRT 1.57", "setting": "[1]; Initial", "value": 0.12, "unit": "%"}, {"measurement": "Individual Related Substances RRT 3.66-3.71", "setting": "[1]; Initial", "value": "ND (ND = Not Detected, or <0.05%)"}, {"measurement": "Potency (Assay)", "setting": "[1]; Initial", "value": 102.0, "unit": "%"}, {"measurement": "Total Related Substances", "setting": "[1]; Initial", "value": 1.7, "unit": "%"}, {"measurement": "pH", "setting": "[1]; Initial", "value": 7.5}, {"measurement": "PT-112 dimer level", "setting": "[2]; 5 mg/mL in 10 mM potassium phosphate, pH ~6.5, about 24 hours at ambient temperature", "value": "about 1.02%"}, {"measurement": "PT-112 dimer level", "setting": "[2]; adjusted to ~pH 7.5 plus 0.5 eq. of pyrophosphate, after 9 days at ambient temperature", "value": "effectively non-detectable level"}, {"measurement": "PT-112 dimer concentration", "setting": "[2]; adjusted to ~pH 7.5 with potassium hydroxide, 7 day period at ambient temperature, no pyrophosphate", "value": "progressively decrease"}, {"measurement": "PT-112 dimer level", "setting": "[2]; in the API", "value": "about 0.33%"}, {"measurement": "time by which crystallization observed in all sample vials", "setting": "[3]", "value": "≤ 12", "unit": "months"}]}]}
